Several values for one entry are separate records, joined by “and”; a condition that tells them apart may be missing. Identical values can stand only once.
What was measured:
[1] = Single oral and IV administration of 14C-3APS to rats; assay type: in vivo, male Sprague-Dawley rats; conditions: for AUC0-∞ / AUC(0-inf): 100 mg/kg 14C-3APS, rats, 100 mg/kg; for AUC(0-inf): male, Sprague-Dawley, rat, plasma
Method: The purpose of this study was to investigate the absorption, metabolism and excretion profiles of ^14C-3APS following a single intravenous bolus and oral administration to rats. Thirty-six male Sprague-Dawley rats received a single 100 mg/kg (˜50 μCi/animal) dose of ^14C-3APS by an IV bolus injection (water or isotonic saline solution) and an additional 36 male rats received the same dose level by oral gavage (in water). Blood, urine, feces, brain and CSF samples were collected for up to 72 hr following dose administration. Plasma, urine, brain and CSF concentrations of 3APS and 2-carboxyethanesulfonic acid (3APS major metabolite) were measured using LC and MS/MS detection method. Plasma, urine, feces, brain and CSF samples were analyzed for total radioactivity using appropriate sample preparation procedures and scintillation counting.

[2] = PK brain and plasma levels of oral Compound A2 and 3-APS in mice; assay type: in vivo; conditions: oral 0.18 mmol/kg
Method: Compounds A2 and 3-aminopropanesulfonic acid were tested for pharmacokinetic parameters in mice. Parmacokinetic parameters (Cmax, Tmax, T½, AUC) are evaluated for 3APS after administration of a molar equivalent of each compound. Blood samples (approximately 1 ml) and brain samples are collected from each of 3 animals at time points 5, 15, 30 minutes, 1, 2, 4, 6, 12, and 24 hours. […] A 2-fold increase in plasma concentration (Cmax) of 3-APS was observed when orally administering Compound A2 compared to 3-APS.

[3] = Absorption, excretion and plasma kinetics of 14C-3APS in humans; assay type: in vivo, human
Source text: Following the identification of 3APS metabolites, plasma and urine samples from this human AME study were reanalyzed for 3APS and 3APS metabolite (2-carboxyethanesulfonic acid, 3-hydroxy-1-propanesulfonic acid and 3-acetylamino-1-propanesulfonic acid) concentrations using qualified HPLC and MS/MS methods to determine the metabolic profile of ^14C-3APS in human.

[4] = Single oral, intravenous and portal administration of 3APS in rats; assay type: in vivo, male Sprague-Dawley rats
Method: The purpose of this study was to compare the pharmacokinetic profile of 3APS following a single dose administration either orally, intravenously or into the portal vein to male Sprague-Dawley rats. The oral, intravenous and portal routes of administration were selected to determine the intestinal and hepatic first-pass effects in the rat. Three groups of 4 male Sprague-Dawley rats were assigned to receive a single dose of 250 mg/kg 3APS by different routes of administration. One group received 3APS as an IV bolus administration (in water or isotonic saline solution), one group by oral gavage (in water) and the last group via a catheter into the portal vein (in water or isotonic saline solution). Blood samples were collected for 24 hours following dose administration. Plasma concentrations of 3APS and 2-carboxyethanesulfonic acid (the major metabolite of 3APS) were determined using LC and MS/MS method.

human hepatocyte (HepG2) = assay: Incubation of 3APS in human hepatocyte (HepG2) culture media; assay type: in vitro ADME; conditions: after incubation of 3APS in HepG2 culture media
Method: (§1) In another in vitro model employing organotypic hippocampal slice culture, the conversion of 3APS to 2-carboxyethanesulfonic acid was time-dependent. More than 60% of 3APS was converted to 2-carboxyethanesulfonic acid after 3-day incubation in the culture media. 2-carboxyethanesulfonic acid was also detected after incubation of 3APS in human hepatocyte (HepG2) culture media.

[5] = Bioavailability of exemplary compounds in mice (3APS quantified in plasma); assay type: in vivo; conditions: mouse, oral, 3APS in plasma
Method: Selected exemplary compounds were tested for bioavailability in mice. Bioavailability estimates are performed for 3APS after administration of molar equivalent the selected compounds. […] The animals are anesthetized with isoflurane before blood collection (approximately 45 sec). Samples are collected at 5, 30, 60, 120, 180, 240 and 360 min post intravenous administration and at 15, 30, 60, 120, 180, 240 and 360 min post oral administration. One animal is used to obtain a baseline sample (pre-dose sample). Blood samples are collected into Sarstedt™ micro tubes (EDTA KE/1.3 ml), kept on ice until centrifugation at 4° C. at a minimum speed of 3000 rpm (1620 G) for 10 min. Plasma samples are transferred into Eppendorf™ tubes, immediately placed on dry ice and stored at −80° C. Plasma samples are stored frozen at […] pending analysis.
Compounds in mouse plasma are extracted using protein precipitation. Quantitation of 3APS in mouse plasma matrix is achieved using LC-MS detection. Sample concentration is calculated using a calibration curve.

[6] = Metabolic profiling of 14C-3APS in dogs; assay type: in vivo, male Beagle dogs; conditions: Dog plasma
Method: Three single dose studies were conducted in mice, rats and dogs to determine the metabolic profile of ^14C-3APS in plasma, urine and feces. In the first study, twenty-seven male CD-1 mice received a single dose of 100 mg/kg (20 μCi/animal) of ^14C-3APS by oral gavage. Blood samples (3 animals/time point) were collected for 12 hr following drug administration while urine and feces (3 animals/time point) samples were collected for 96 hr. In the second study, eight male Sprague-Dawley rats received a single dose of 100 mg/kg (50 μCi/animal) of ^14C-3APS by oral gavage while in the third study, three male Beagle dogs received a single dose of 100 mg/kg (30 μCi/kg) of ^14C-3APS by oral gavage. For the rat and dog studies, blood samples were collected for 24 hr following drug administration while urine and feces samples were collected for 72 hr. All samples were analyzed for total radioactivity using appropriate sample preparation procedures and scintillation counting. Plasma and urine samples were also analyzed for 3APS and 3APS metabolites (2-carboxyethanesulfonic acid, 3-hydroxy-1-propanesulfonic acid and 3-acetylamino-1-propanesulfonic acid) concentrations using qualified HPLC and MS/MS methods.

[7] = Previous metabolic stability studies of 3APS; assay type: in vitro ADME
Source text: Those studies include: 3APS metabolic stability in pooled human hepatocytes, human, rat and dog liver microsomes, human intestinal microflora, pooled human liver cytosol, and human arylamine N-acetyltransferase (See Examples 4 and 5).

[8] = test system: organotypic hippocampal slice culture; assay: In vitro metabolism of 3APS in organotypic hippocampal slice culture; assay type: in vitro ADME; conditions: 3-day incubation in the culture media
Method: as §1

[9] = analyte after single oral 100 mg/kg 14C-3APS
[10] = male, Beagle, dog, plasma, po, 100 mg/kg, analyte after single oral 100 mg/kg 14C-3APS

With `NCCCS(=O)(=O)O` [Compound 3APS, 3-amino-1-propanesulfonic acid] the “AUC0-∞” value ([1]; IV, individual animals 1001-1004) was 1420 µM·h and 1591 µM·h and 1147 µM·h, the “% of total radioactivity (AUC0-∞ analyte/AUC total radioactivity)” value ([1]; IV, Mean) was 89% and the “AUC0-∞” value ([1]; PO, individual animals 3001-3004) was 539 µM·h and 407 µM·h and 471 µM·h. The “% of total radioactivity (AUC0-∞ analyte/AUC total radioactivity)” value ([1]; PO, Mean) was “about 68%”, the AUC(0-inf) ([1]; iv, Mean) was 1420 µM·h and the AUC(0-inf) ([1]; iv, individual animals 1001-1004) was 1530 µM·h. The AUC(0-inf) ([1]; po, Mean) was 507 µM·h, the AUC(0-inf) ([1]; po, individual animals 3001-3004) was 610 µM·h and the “Brain AUC” value ([2]; 3-APS analysed) was “BLLQ”. For the same compound, the “Brain Cmax” value ([2]; 3-APS analysed) was “BLLQ”, the “Brain concentration of 3-APS” value [2] was “could not be quantified” and the “% of total radioactivity in plasma based on AUC0-τ” value ([3]; healthy subjects, oral 14C-3APS) was “approximately 48%”. For the same compound, the “% of total amount of radioactivity excreted in urine” value ([3]; human urine) was “approximately 15%”, the “metabolism of 3APS associated with hepatic first-pass” value ([4]; hepatoportal versus intravenous exposure, 250 mg/kg) was 24% and the “bioavailability based on the AUC∞” value ([4]; oral 250 mg/kg) was “about 38%”. The “metabolism of 3APS associated with intestinal first-pass” value ([4]; oral versus hepatoportal exposure, 250 mg/kg) was 43%, the “formation of 2-carboxyethanesulfonic acid” value (human hepatocyte (HepG2)) was “detected” and the Tmax [5] was 15 min. For the same compound, the AUC0-τ [6, 9] was 24.5 µmol·min/mL, the “AUC∞” value [6, 9] was 25.3 µmol·min/mL and the T1/2 ([6]; analyte after single oral 100 mg/kg 14C-3APS, 100 mg/kg) was 302 min. The Tmax [6, 10] was about 30 min, the half-life [6, 10] was about 300 min and the Cmax ([6]; male, Beagle, analyte (3APS or metabolite) after single oral 100 mg/kg 14C-3APS) was 250 µM. The in vitro metabolism [7] was “no in vitro metabolism” and the “3APS converted to 2-carboxyethanesulfonic acid” value [8] was “More than 60%”.
